# From patent US20120190723A1, “VIRAL MODULATORS AND PROCESSES THEREOF” (priority 2010, published 2012)
# Entries after “also recorded” stand apart in the source; their conditions may differ. Counter-ions that a name gives are not always drawn. Like-named read-outs stand apart in the source and are kept apart here. Starred links: 1 amine or outer side, 2 acyl side, 3 side chain; linkers in the order of their positions; H or OH if unused. Positions of bridges follow the written chain, without caps; N, C: chain ends. Non-standard residues stand in square brackets, D forms with d. Residues, ends and D or L forms follow the SMILES beside them. Chains are numbered I, II in the order given. Actinocin(9to1) = Cc1c2oc3c(C)ccc(C(=O)[*:1])c3nc-2c(C(=O)[*:2])c(N)c1=O; NMeV = CN[C@H](C(=O)O)C(C)C; Sar = CNCC(=O)O
# Tests used:
# VEEV TC-83 [1] = assay: microbe, parasite or virus in culture; type: cell-based, Venezuelan Equine Encephalitis Virus; conditions: for effect on VEEV induced CPE: 1 μM, 48 hours post infection
# U87MG astrocytes = conditions: for cellular viability of BIO analogs: 1 μM
# [2] = test system: HIV-1 LTR Tat dependent transcription; assay: cells; conditions: Human immunodeficiency virus 1, TZM-bl, read-out: % Inhibition at 1 μM
# HIV-1 dual tropic 89.6 [3] = assay: HIV-1 89.6 replication in primary monocyte/macrophages (RT assay); type: cell-based; conditions: Human immunodeficiency virus 1, Primary macrophage, 168 h; 89.6 infection, RT day 7
# HIV-1 dual tropic 89.6 [4] = assay: HIV-1 89.6 replication in U87MG cells (RT assay); type: cell-based; conditions: Human immunodeficiency virus 1, U-87 MG, 168 h; 89.6 infection, RT day 7
# [5] = test system: monocyte/macrophage from two healthy donors and U87MG; assay: MTT toxicity in monocyte/macrophages and U87MG; type: cell-based; conditions: primary cells or cell line
# [6] = test system: HIV-rtTA KWK (Tat+) and KYK (Tat−) clones; assay: dox-dependent HIV-rtTA variants (KWK, KYK) in macrophages, RT assay; type: cell-based, HIV-1; conditions: BIOder 50 nM, dox 1000 ng/ml, RT day 10
# [7] = test system: Rat mixed hippocampal cultures exposed to Tat1-72; assay: Tat neurotoxicity in rat mixed hippocampal cultures (MTT); type: cell-based; conditions: for protection against Tat mediated neurodegeneration: 1.0 and 3.0 uM, p<0.05, 500 nM Tat1-72, 18 hours; for neurotoxicity: 5.0 and 10.0 uM
# Experimental: After approximately 18 hours, cell survival may be measured by MTT assay. Statistical significance may be determined by ANOVA, followed by Newman-Keuls post hoc pair-wise comparisons.
# In some aspects of embodiments, rat mixed hippocampal cultures may be preincubated with BIO prior to exposure to Tat. Cell death may be analyzed approximately 18 hours after Tat exposure by MTT assay.
# VEEV TC-83 [8] = assay: microbe, parasite or virus in culture; type: cell-based; conditions: Venezuelan equine encephalitis virus, U-87 MG, read-out: IC50, VEEV replication
# survivin, BID = type: cell-based
# VEEV TC-83 [9] = type: in vivo, C3H/HeN mice; conditions: for survival rate: SQ days −1, 1, 3, 5, BIO 50 mg/kg, BIOder 20 mg/kg, 14 days, vehicle 10%; for survival differential: vs vehicle control
# [10] = in vivo
# in vitro = conditions: human
# GSK-3β [11] = molecular target: T1, GSK-3β (Homo sapiens, UniProt P49841); assay: GSK-3β immunoprecipitation in vitro kinase assay (U937 cells)
# Target sequence in this assay (P49841 whole entry): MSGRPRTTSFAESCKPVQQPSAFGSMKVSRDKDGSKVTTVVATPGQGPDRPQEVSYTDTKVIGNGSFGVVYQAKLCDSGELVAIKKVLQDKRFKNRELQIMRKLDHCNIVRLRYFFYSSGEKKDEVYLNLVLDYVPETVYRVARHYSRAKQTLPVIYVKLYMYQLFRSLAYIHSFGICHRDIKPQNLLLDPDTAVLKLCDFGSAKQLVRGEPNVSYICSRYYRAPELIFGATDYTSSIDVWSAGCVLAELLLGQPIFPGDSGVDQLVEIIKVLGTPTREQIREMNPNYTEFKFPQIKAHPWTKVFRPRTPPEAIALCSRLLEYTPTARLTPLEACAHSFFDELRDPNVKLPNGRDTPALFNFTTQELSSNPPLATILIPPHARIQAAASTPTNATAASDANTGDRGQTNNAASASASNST
# GSK-3β [12] = molecular target: T1, GSK-3β; type: biochemical; design: Cells may be lysed and immunoprecipitated with control IgG and/or GSK-3β antibody; endogenous in cells
# Target sequence in this assay (P49841 whole entry, looked up): as the sequence (P49841 whole entry) above
# VEEV TC-83 [13] = type: cell-based, Venezuelan Equine Encephalitis Virus; conditions: 1 μM
# [14] = test system: HIV-1 LTR Tat dependent transcription; conditions: TZM-bl cells transfected with Tat, compared to the DMSO control
structure (smiles),measurement,setting,value
"O=C1Nc2ccc(Br)cc2/C1=N\NC(=O)c1ccccc1NC(=O)c1ccccc1 [Compound 31, N-(2-{[2-(5-bromo-2-oxo-1,2-dihydro-3H-indol-3-ylidene)hydrazino]carbonyl}phenyl)benzamide]",effect on VEEV induced CPE,VEEV TC-83 [1],inhibit CPE
"O=C1NC(=O)/C(=C2/C(=O)Nc3ccc(Br)cc32)N1 [Compound 33, 5-(5-bromo-2-oxo-1,2-dihydro-3H-indol-3-ylidene)-2,4-imidazolidinedione]",cellular viability of BIO analogs,U87MG astrocytes,decrease in cellular viability
COc1cccc2c1C(=O)c1c(O)c3c(c(O)c1C2=O)C[C@@](O)(C(=O)CO)C[C@@H]3O[C@H]1C[C@H](N)[C@@H](O)[C@H](C)O1 [Epirubicin hydrochloride],inhibition at 1 µM,[2],17%
"Cc1cc(C(=O)N/N=C2\C(=O)Nc3ccc(Br)cc32)[nH]n1 [Compound 32, N′-(5-bromo-2-oxo-1,2-dihydro-3H-indol-3-ylidene)-3-methyl-1Hpyrazole-5-carbohydrazide]",cellular viability of BIO analogs,U87MG astrocytes,decrease in cellular viability
"O=C1Nc2ccc(Br)cc2/C1=N/NC(=O)c1ccc(Cl)cc1Cl [Compound 16, N′-(5-bromo-2-oxo-1,2-dihydro-3H-indol-3-ylidene)-2,4-dichlorobenzohydrazide]",cellular viability of BIO analogs,U87MG astrocytes,decrease in cellular viability
"Cc1cc2c(cc1Br)NC(=O)/C2=N/N=C1/C(=O)Nc2cc(Br)c(C)cc21 [Compound 6, 6-bromo-5-methyl-1H-indole-2,3-dione 3-[(6-bromo-5-methyl-2-oxo-1,2-dihydro-3H-indol-3-ylidene)hydrazone]]",IC50,HIV-1 dual tropic 89.6 [3],~4 nM
same,IC50,HIV-1 dual tropic 89.6 [4],~0.5 nM
same,Cytotoxic concentration (MTT),[5],> 10 µM
same,viral replication of KWK (Tat+) and KYK (Tat−) clones,[6],inhibited in the KWK (Tat+) and not KYK (Tat−) clone
same,protection against Tat mediated neurodegeneration,[7],protective effect
same,neurotoxicity,[7],no neurotoxicity observed
same,IC50,VEEV TC-83 [8],~500 nM
same,effect on VEEV induced CPE,VEEV TC-83 [1],inhibit CPE; also recorded: particularly strong inhibition
same,cellular viability of VEEV infected cells,"VEEV TC-83 [1]; 72 hours post-infection, all concentrations employed",relative increase in cellular viability
same,IC50,"VEEV TC-83 [1]; Venezuelan equine encephalitis virus, U-87 MG, read-out: IC50 for inhibition of VEEV induced CPE",< 100 nM
same,BID expression,"survivin, BID",relatively strong decrease
same,survivin expression,"survivin, BID",relative increase in the expression of survivin
same,survival rate,VEEV TC-83 [9],approximately 50%
same,survival differential,VEEV TC-83 [9],approximately 40%
same,cellular viability,U87MG astrocytes,no substantial effect on cellular viability
same,mouse weight,[10],substantially no treatment group showed weight loss
same,"signs of toxicity (lethargy, ruffling of coats, weight loss)",[10]; mouse,Substantially no signs of toxicity
same,CC50,in vitro,> 100000 nM
same,IC50,GSK-3β [11],~0.03 nM
same,inhibition of GSK-3β kinase activity,"GSK-3β [11]; at approximately 1 nM, glycogen synthase peptide 2 substrate",approximately 90%
same,GSK3-β kinase activity,GSK-3β [12],much more relatively dramatic influence
"Cc1c2oc3c(C)ccc(C(=O)N[C@@H]4C(=O)N[C@H](C(C)C)C(=O)N5CCC[C@H]5C(=O)N(C)CC(=O)N(C)[C@@H](C(C)C)C(=O)O[C@@H]4C)c3nc-2c(C(=O)N[C@@H]2C(=O)N[C@H](C(C)C)C(=O)N3CCC[C@H]3C(=O)N(C)CC(=O)N(C)[C@@H](C(C)C)C(=O)O[C@@H]2C)c(N)c1=O [Dactiniomycin, Dactinomycin] (I: T[dV]P[Sar][NMeV] / II: T[dV]P[Sar][NMeV]; ester I:1-I:C, II:1-II:C; linker I:N-II:N via Actinocin(9to1))",inhibition at 1 µM,[2],98%
"Cc1ccc2c(c1Br)C(=NNc1ccccc1)C(=O)N2 [Compound 17, 4-bromo-5-methyl-1H-indole-2,3-dione 3-(phenylhydrazone)]",effect on VEEV induced CPE,VEEV TC-83 [1],inhibit CPE
"COc1ccc(-c2cc(C(=O)N/N=C3/C(=O)Nc4ccc(Br)cc43)[nH]n2)cc1 [Compound 28, N′-(5-bromo-2-oxo-1,2-dihydro-3H-indol-3-ylidene)-3-(4-methoxyphenyl)-1H-pyrazole-5-carbohydrazide]",effect on VEEV induced CPE,VEEV TC-83 [1],inhibit CPE
C=C[C@H]1CN2CC[C@H]1C[C@H]2[C@H](OC(=O)OCC)c1ccnc2ccc(OC)cc12 [Quinine ethyl carbonate],inhibition at 1 µM,[2],34%
"O=C1Nc2ccc(Cl)cc2/C1=C1\C(=O)Nc2ccc(Br)cc21 [Compound 34, 5-bromo-5′-chloro-3,3′-biindole-2,2′(1H,1′H)-dione]",cellular viability of BIO analogs,U87MG astrocytes,decrease in cellular viability
"O=C1Nc2c(Br)cc(Br)cc2/C1=N/NC(=O)c1cc(-c2ccccc2)n[nH]1 [Compound 24, N′-(5,7-dibromo-2-oxo-1,2-dihydro-3H-indol-3-ylidene)-3-phenyl-1Hpyrazole-5-carbohydrazide]",effect on VEEV induced CPE,VEEV TC-83 [1],increase observed CPE
"Cc1ccc2c(c1Br)/C(=N/NC(=O)Nc1ccccc1)C(=O)N2 [Compound 5, 4-bromo-5-methyl-1H-indole-2,3-dione 3-(N-phenylsemicarbazone)]",effect on VEEV induced CPE,VEEV TC-83 [1],increase observed CPE
"Cc1ccc2c(c1Br)/C(=N/O)C(=O)N2 [Compound 4, 4-bromo-5-methyl-1H-indole-2,3-dione 3-oxime]",effect on VEEV (FIG. 11),VEEV TC-83 [13],VEEV activators
"Cc1[nH]c2ccc(Br)cc2c1CC(=O)N/N=C1/C(=O)Nc2ccccc21 [Compound 21, 2-(5-bromo-2-methyl-1H-indol-3-yl)-N′-(2-oxo-1,2-dihydro-3H-indol-3-ylidene)acetohydrazide]",effect on VEEV (FIG. 11),VEEV TC-83 [13],VEEV activators
O=C1Nc2ccccc2/C1=C1/Nc2ccccc2/C1=N\O [Indirubin-3′-oxime],% Inhibition at 1 μM,[14],25%
"O=C1Nc2cc(Br)ccc2/C1=C1/Nc2ccccc2/C1=N\O [BIO, 6-bromoindirubin-3′-oxime, reference compound]",protection against Tat mediated neurodegeneration,[7],significant neuroprotective effects
same,neurotoxicity,[7],neurotoxicity observed
same,LD50 (neurotoxicity),[7]; rat mixed hippocampal cultures,approximately 4 uM
same,survivin expression,"survivin, BID",relatively increase survivin expression
same,survival rate,VEEV TC-83 [9],~30%
same,survival differential,VEEV TC-83 [9],approximately 20%
"Cc1c(Cl)ccc2c1NC(=O)/C2=C1/C(=O)Nc2ccccc21 [Compound 38, 6-chloro-7-methyl-3,3′-biindole-2,2′(1H,1′H)-dione]",effect on VEEV (FIG. 11),VEEV TC-83 [13],VEEV activators
